Laboratory results published in ChEMBL document CHEMBL4190382, “Targeting lysine specific demethylase 4A (KDM4A) tandem TUDOR domain - A fragment based approach” (Bioorg Med Chem Lett, 2018).
Values belong to the molecule of their own block, whether it stands above or below them. Calls of active or inactive are those of the source. The calls are words filed in the database; no cut-off is given here. Square brackets hold non-standard residues; d marks the D form. Peptide text beside a SMILES is read from it. Lys(Me3) = C[N+](C)(C)CCCC[C@H](N)C(=O)O

Columns and labels:
[1] = molecular target: T1, Lysine-specific demethylase 4A (Homo sapiens, UniProt O75164); test: Binding affinity to thrombin cleavable N-terminal 6His tagged and 13C-IVLM labeled human KDM4A tandem TUDOR domain (897 to 1011 residues) expressed in Escherichia coli BL21(DE3)-T1R by ITC method
T1 sequence (O75164 whole entry): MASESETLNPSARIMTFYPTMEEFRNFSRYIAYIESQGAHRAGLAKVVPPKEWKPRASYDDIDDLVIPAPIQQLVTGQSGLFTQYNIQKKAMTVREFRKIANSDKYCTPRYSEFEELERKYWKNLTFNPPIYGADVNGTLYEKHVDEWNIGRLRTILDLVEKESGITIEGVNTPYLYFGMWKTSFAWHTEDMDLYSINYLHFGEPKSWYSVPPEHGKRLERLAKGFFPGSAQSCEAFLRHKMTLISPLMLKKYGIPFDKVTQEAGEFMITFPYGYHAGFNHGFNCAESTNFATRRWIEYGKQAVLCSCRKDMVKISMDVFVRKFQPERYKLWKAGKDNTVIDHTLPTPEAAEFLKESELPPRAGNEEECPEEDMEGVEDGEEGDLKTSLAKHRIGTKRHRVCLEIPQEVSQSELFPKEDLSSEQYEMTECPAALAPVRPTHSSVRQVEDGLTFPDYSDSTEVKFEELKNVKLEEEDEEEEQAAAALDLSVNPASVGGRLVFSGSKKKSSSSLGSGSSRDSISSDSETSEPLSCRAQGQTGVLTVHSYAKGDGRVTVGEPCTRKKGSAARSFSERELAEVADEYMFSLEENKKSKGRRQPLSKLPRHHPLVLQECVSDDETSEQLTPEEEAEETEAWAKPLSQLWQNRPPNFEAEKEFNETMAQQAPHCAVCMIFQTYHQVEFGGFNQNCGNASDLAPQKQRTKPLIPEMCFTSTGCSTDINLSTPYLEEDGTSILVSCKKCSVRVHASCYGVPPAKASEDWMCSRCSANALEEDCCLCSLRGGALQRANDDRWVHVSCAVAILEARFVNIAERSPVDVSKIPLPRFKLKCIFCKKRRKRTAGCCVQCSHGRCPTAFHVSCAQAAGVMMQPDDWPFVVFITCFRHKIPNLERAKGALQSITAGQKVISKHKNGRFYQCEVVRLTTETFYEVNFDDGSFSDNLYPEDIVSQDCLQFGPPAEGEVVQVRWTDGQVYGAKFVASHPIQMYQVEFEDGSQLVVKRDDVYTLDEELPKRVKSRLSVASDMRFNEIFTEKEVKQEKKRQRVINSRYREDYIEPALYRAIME

[2] = molecular target: T1, Lysine-specific demethylase 4A; test: Inhibition of NanoLuc-KDM4A-TUDOR domain (unknown origin) binding to Histone H3.3-HaloTag expressed in 293T cells incubated for 18 hrs by Nano-BRET based target engagement assay; type: cell-based
[3] = molecular target: T1, Lysine-specific demethylase 4A; test: (§1) Binding affinity to thrombin cleavable N-terminal 6His-tagged and 13C-IVLM labeled human KDM4A tandem TUDOR domain (897 to 1011 residues) expressed in Escherichia coli BL21(DE3)-T1R at 1 mM by 13C HSQC NMR spectroscopy
[4] = molecular target: T2, Lysine-specific demethylase 4A (Homo sapiens) (UniProt O75164); test: as §1
T2 sequence (whole entry): T1 sequence (O75164 whole entry)

- Kd [1]: 4.7 µM
SMILES: CC(C)C[C@H](NC(=O)[C@@H](NC(=O)[C@H](CCCC[N+](C)(C)C)NC(=O)[C@H](CCCNC(=N)N)NC(=O)[C@H](Cc1cnc[nH]1)NC(=O)[C@H](CCCNC(=N)N)NC(=O)[C@@H](N)CCCCN)C(C)C)C(=O)N[C@@H](CCCNC(=N)N)C(=O)N[C@@H](CC(=O)O)C(=O)N[C@@H](CC(N)=O)C(=O)O (H-KRHR[Lys(Me3)]VLRDN-OH)

- EC50 [2]: 1220 µM
SMILES: CN(C)C[C@@H]1C2CCC(c3ccccc3)(C2)[C@@H]1O (stereo not given in full)

- Kd [3]: 80 µM
SMILES: CN(C)CC1C2CCC(c3ccccc3)(C2)C1O (stereo not given)

- Kd [1]: 3 µM
- Activity [4]: Active
SMILES: C[C@H](N)C(=O)N[C@@H](CCCNC(=N)N)C(=O)N[C@H](C(=O)N[C@@H](CCCC[N+](C)(C)C)C(=O)N[C@@H](CCC(N)=O)C(=O)N[C@H](C(=O)N[C@@H](C)C(=O)N[C@@H](CCCNC(=N)N)C(=O)N[C@@H](CCCCN)C(=O)N[C@@H](CO)C(=O)O)[C@@H](C)O)[C@@H](C)O
